Legend:
[1] = test system: prototrophic yeast strain (CEN.PK113-7D); assay: Propidium iodide fluorescence-based CLS method in yeast (incl. high-throughput screening); format: cell-based, Saccharomyces cerevisiae; details: for Yeast CLS increase: Yes/No call of the screen;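 as to PI intensity: untreated reference is eight DMSO and water control wells per plate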
Description: Yeast strain was recovered from frozen glycerol stock at 30° C. on YPD agar medium. Yeast was left to propagate in SD medium overnight at 30° C. with shaking at 220 revolutions per minute (rpm). Cells propagated overnight were diluted to a starting optical density at 600 nm (OD600) of approximately 0.2 in fresh SD medium to begin the chronological lifespan (CLS) experiments.
(§1) CLS experiments were performed in 96-well plates with 200 μL yeast culture. Cellular inoculums were transferred into 96-well plates containing serially double-diluted concentrations (0 to 10 nM) of rapamycin. Cellular inoculum was transferred into 96-well plates containing serially double-diluted concentrations (0 to 8 mM) of 2,5-anhydro-D-mannitol, D-fructose, D-mannitol, D-maltose, and D-sorbitol in SD medium. Cells were incubated at 30° C., and the growth was measured at different time points. […] Cell survival was quantified at various age time points by three different approaches: (i) PI fluorescence-based method, (ii) outgrowth in YPD liquid medium, and (iii) spotting assay (FIG. 1).
Yeast cells (40 μL) from different age time points were transferred into a second 96-well plate (different to the 96-well plate in which the CLS analysis as outlined above was performed). Cells were washed and incubated in 100 μL 1×phosphate buffered saline (PBS) with propidium iodide (PI) (5 μg/mL) for 15 minutes in the dark. Positive and negative control samples were included for quantitative analysis. Positive control (cells boiled at 100° C. for 15 minutes) was PI-stained and processed in the same 96-well plate. Samples without PI-stained cells served as the negative control. After incubation, cells were washed and resuspended in 100 μL PBS. The fluorescence reading of the samples (excitation and emission wavelengths at 535 nm and 617 nm, respectively) and OD600 were measured with a microplate reader (BioTek, Winooski, Vermont, United States). The fluorescence intensity of each sample was normalized with OD600. The background fluorescence signal of the unstained negative sample was subtracted from the normalized fluorescence intensity of each sample. The obtained fluorescence intensity of the positive control (boiled dead cells) was considered 0% cell survival. Cell death was validated by allowing the boiled dead cells to grow in medium. Cell survival at different age time points of samples were calculated by normalizing the fluorescence intensity with positive control sample (boiled cells).
High-throughput screening of various chemicals was tested using the same protocol for the propidium iodide fluorescence-based method as described above. The prototrophic yeast strain (CEN.PK113-7D) was grown in the synthetic defined medium with different chemical reagents at their respective single testing concentration (Table 1) in addition to eight replicates of DMSO and water controls in 96-well plates at 30° C.

[2] = test system: prototrophic yeast strain (CEN.PK113-7D); assay: Yeast outgrowth in YPD liquid medium (CLS of aged cells); format: cell-based, Saccharomyces cerevisiae; details: for Outgrowth: age point day 14; for aged cell survival in yeast: various concentrations, outgrowth relative to Day 2 (FIGS. 22A to D)
Description: as §1
Outgrowth (OD600) of aged cells was measured by the microplate reader. Quantification of cell survival for each age point was determined as relative to Day 1 (considered 100% cell survival). This quantification was performed by using the formula,
[formula] • where OutgrowthDay n refers to the OD600 nm absorbance reading recorded on a specific day, OutgrowthDay 1 refers to the OD600 nm absorbance reading recorded on the first day where 100% cell survival is assumed.
The CLS of the aged cells was further determined by the yeast outgrowth in YPD liquid medium method as described above. […] At chronological age point day 14, 3-μL of culture were transferred to a second 96-well plate containing 200 μL YPD medium.

[3] = concentration tested 100 μM, solvent DMSO or water, chronological age point Day 7 (72 h growth = Day 1), lower = more survival
[4] = concentration tested 100 μM, OD600 nm after 24 h in YPD at 30° C.

Row | Compound | Yeast CLS increase ([1]; concentration tested 100 μM) | PI intensity [1, 3] | Outgrowth [2, 4] | also measured
1 | Cl.N[C@H]1C(O)O[C@H](CO)[C@@H](O)[C@@H]1O (stereo partly drawn) [Glucosamine (hydrochloride)] | No | 65,905.5 | 0.1 | 
2 | N[C@@H](Cc1ccc(O)c(Cl)c1)C(=O)O [3-Chloro-L-tyrosine] | No | 67,122.0 | 0.1 | 
3 | C#CC1(O)CC[C@H]2[C@@H]3CCC4=CC(=O)CC[C@@H]4[C@H]3CC[C@@]21CC (mixture of isomers) [Norgestrel, reference compound] | No | 75,338.8 | 0.1 | 
4 | C/C(=C\C(=O)OCCCCCCCCC(=O)O)C[C@@H]1OC[C@H](C[C@@H]2O[C@H]2[C@@H](C)[C@H](C)O)[C@@H](O)[C@H]1O [Mupirocin, reference compound] | No | 68,477.7 | 0.1 | 
5 | CC(C)=CCC/C(C)=C/CO [Geraniol] | No | 76,340.1 | 0.1 | 
6 | Nc1ccccc1C(=O)C[C@H](N)C(=O)O [L-Kynurenine] | No | 72,824.1 | 0.1 | 
7 | NC(CO)C(=O)O (racemic) [DL-Serine] | Yes | 33,155.7 | 1.1 | 
8 | Cc1cc(=O)oc2cc(O)ccc12 [4-Methylumbelliferone] | No | 90,234.6 | 0.1 | 
9 | C[C@H](CCC(=O)NCC(=O)O)[C@H]1CC[C@H]2[C@@H]3[C@@H](O)C[C@@H]4C[C@H](O)CC[C@]4(C)[C@H]3CC[C@]12C [Glycoursodeoxycholic acid] | No | 64,205.2 | 0.1 | 
10 | O=C(O)/C=C/CCCCCCCO [Royal Jelly acid] | No | 65,406.1 | 0.1 | 
11 | O=C(O)[C@H]1O[C@@H](Oc2c(-c3ccc(O)cc3)oc3cc(O)cc(O)c3c2=O)[C@H](O)[C@@H](O)[C@@H]1O [Kaempferol 3-O-β-D-glucuronide] | No | 62,874.6 | 0.1 | 
12 | Catechin | No | 63,589.5 | 0.1 | 
13 | Cl.NCCC[C@H](N)C(=O)O [L-Ornithine (hydrochloride)] | No |  | 0.1 | 
14 | O=[N+]([O-])C(Br)(CO)CO [Bronopol] | No | 79,284.9 | 0.1 | 
15 | Heparin (sodium salt) (MW 15 kDa) [reference compound] |  |  |  | Yeast CLS increase ([1]; concentration tested 30 μg/mL): No; PI intensity ([1]; concentration tested 30 μg/mL, solvent water, age point Day 7): 64,969.0; Outgrowth ([2]; concentration tested 30 μg/mL, OD600 nm after 24 h in YPD): 0.1
16 | CC(C)c1c(C(=O)Nc2ccccc2)c(-c2ccccc2)c(-c2ccc(F)cc2)n1CC[C@@H](O)C[C@@H](O)CC(=O)O [atorvastatin, reference compound] |  |  |  | aged cell survival in yeast [2]: survived longer as compared to those without treatment
17 | hemin [reference compound] |  |  |  | aged cell survival in yeast [2]: survived longer as compared to those without treatment
18 | CC(CCC(=O)NCC(=O)O)C1CCC2C3CCC4CC(O)CCC4(C)C3CC(O)C12C (stereo not drawn) [Glycodeoxycholic Acid] |  | 68,981.6 |  | 
19 | O=c1[nH]cc(F)c(=O)[nH]1 [5-fluorouracil, reference compound] |  |  |  | aged cell survival in yeast [2]: survived longer as compared to those without treatment
20 | COc1c(O)cc(O)c2c(=O)cc(-c3ccccc3)oc12 [Wogonin] | No | 76,348.2 |  | 
21 | CN(Cc1cnc2nc(N)nc(N)c2n1)c1ccc(C(=O)N[C@@H](CCC(=O)O)C(=O)O)cc1 [methotrexate, reference compound] |  |  |  | aged cell survival in yeast [2]: survived longer as compared to those without treatment

Source: patent US20250161338A1, “Compounds for Anti-aging Intervention” (AGENCY FOR SCIENCE, TECHNOLOGY AND RESEARCH, priority 2022, published 2025)
